Where a SMILES comes first, the peptide text is derived from it. [ ]: non-standard residue; d: D form. The star is where a group is joined. Palmitoyl = CCCCCCCCCCCCCCCC(=O)*; hSer = N[C@@H](CCO)C(=O)O; Nle = CCCC[C@H](N)C(=O)O; Pra = C#CC[C@H](N)C(=O)O

T1 sequence (P61073 whole entry): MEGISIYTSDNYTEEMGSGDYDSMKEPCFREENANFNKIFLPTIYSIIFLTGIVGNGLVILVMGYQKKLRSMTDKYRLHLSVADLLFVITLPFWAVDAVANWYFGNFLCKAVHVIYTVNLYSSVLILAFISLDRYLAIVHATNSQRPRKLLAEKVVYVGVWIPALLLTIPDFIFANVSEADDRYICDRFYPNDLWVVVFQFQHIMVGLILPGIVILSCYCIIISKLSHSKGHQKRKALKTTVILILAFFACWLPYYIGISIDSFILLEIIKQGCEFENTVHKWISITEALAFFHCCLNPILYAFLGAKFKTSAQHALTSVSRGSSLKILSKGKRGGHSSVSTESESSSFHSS

This assay concerns the target T1, CXCR4 (Homo sapiens, UniProt P61073).
T1 construct: CCRF-CEM cells, a human T-cell ALL line that endogenously expresses CXCR4; endogenous in cells; host or cells: CCRF-CEM (human T-cell acute lymphoblastic leukemia line)
As to the kind of experiment: Calcium flux assay, agonist mode, Flexstation (CCRF-CEM cells). In kind it is cell-based. The conditions noted are these: CCRF-CEM, percent of maximum response compared with SDF-1α, read-out: % Intrinsic Activity. From the text: Calcium Flux Assay is one of the most popular cell-based GPCR functional assays. It most often uses calcium sensing fluorescent dyes such as fura2 AM, fluo-4 and Calcium-4 to measure changes in intracellular calcium concentration. It is used mainly to detect GPCR signaling via Gαq subunit. Activation of these Gq-coupled GPCRs leads to activation of phospholipase C, which subsequently leads to increase in inositol phosphate production. IP3 receptors on endoplasmic reticulum sense the change then release calcium into cytoplasm. Intracellular calcium binding to the fluorescent dyes can be detected by instruments that quantify fluorescent intensities, such as FLIPR Tetra, Flexstation (MDS) and FDSS (Hamamatsu). In addition, to assess Gq-couple receptor signaling, a calcium flux assay can also be used to study Gs and Gi couple receptors by co-expressing CNG (cyclic nucleotide gated calcium channel) or chimeric G-proteins (Gqi5, Gsi5 for example). Activation of some Gi-coupled receptors can also be detected by calcium flux assay via Gβγ mediated phospholipase C activation.
The calcium flux assay was used to assess the test compounds' ability to activate the CXCR4 receptor in CCRF-CEM cells (human T lymphoblasts from acute lymphoblastic leukemia). […] After dye loading by incubating with Calcium-4 dye at 37° C. for 1 hour, cell plates were read at 37° C. using the using the Flexstation 3 workstation. Receptor activation was assessed by measuring changes in fluorescent intensity after the addition of the test compounds or the reference agonist SDF-1α on the using the Flexstation 3 workstation. EC50
and percent intrinsic actively were derived from the data collected. Intrinsic activity refers to the efficacy of the test compound and is calculated as the percent of maximum response compared with the response of the reference standard (i.e., natural agonist, SDF-1α).
As to `CCCCCCCCCCCCCCCC(=O)N[C@@H](CCSC)C(=O)NCC(=O)N[C@@H](Cc1ccc(O)cc1)C(=O)N[C@@H](CCC(N)=O)C(=O)N[C@@H](CCCCN)C(=O)N[C@@H](CCCCN)C(=O)N[C@@H](CC(C)C)C(=O)N[C@@H](CCCNC(=N)N)C(=O)N[C@@H](CO)C(=O)N[C@@H](Cc1c[nH]cn1)C(=O)N[C@H](C(=O)N[C@@H](CC(=O)O)C(=O)N[C@@H](CCCCN)C(=O)N[C@@H](Cc1ccc(O)cc1)C(=O)N[C@@H](CCCNC(=N)N)C(=O)N[C@@H](CC(C)C)C(N)=O)[C@@H](C)O` [Compound 18] (Palmitoyl-MGYQKKLRSHTDKYRL-NH2; C-terminus assumed), the Emax worked out at 93.4%.
Regarding `CCCCCCCCCCCCCCCC(=O)N[C@@H](CCSC)C(=O)NCC(=O)N[C@@H](Cc1ccc(O)cc1)C(=O)N[C@@H](CCC(N)=O)C(=O)N[C@@H](CCCCN)C(=O)N[C@@H](CCCCN)C(=O)N[C@@H](CC(C)C)C(=O)N[C@@H](CCCNC(=N)N)C(=O)N[C@@H](CO)C(=O)NCC(=O)N[C@H](C(=O)N[C@@H](CC(=O)O)C(=O)N[C@@H](CCCCN)C(=O)N[C@@H](Cc1ccc(O)cc1)C(=O)N[C@@H](CCCNC(=N)N)C(=O)N[C@@H](CC(C)C)C(N)=O)[C@@H](C)O` [Compound 19] (Palmitoyl-MGYQKKLRSGTDKYRL-NH2; C-terminus assumed), the Emax is 101%.
For the compound `CCCCCCCCCCCCCCCC(=O)NCC(=O)N[C@@H](Cc1ccc(O)cc1)C(=O)N[C@@H](CCC(N)=O)C(=O)N[C@@H](CCCCN)C(=O)N[C@@H](CCCCN)C(=O)N[C@@H](CC(C)C)C(=O)N[C@@H](CCCNC(=N)N)C(=O)N[C@@H](CO)C(=O)N[C@@H](CCCC)C(=O)N[C@H](C(=O)N[C@@H](CC(=O)O)C(=O)N[C@@H](CCCCN)C(=O)N[C@@H](Cc1ccc(O)cc1)C(=O)N[C@@H](CCCNC(=N)N)C(=O)N[C@H](C(N)=O)[C@@H](C)CC)[C@@H](C)O` [Compound 20] (Palmitoyl-GYQKKLRS[Nle]TDKYRI-NH2; C-terminus assumed), the Emax worked out at 62.5%.
`CCCCCCCCCCCCCCCC(=O)N[C@@H](CCOC)C(=O)NCC(=O)N[C@@H](Cc1ccc(O)cc1)C(=O)N[C@@H](CCC(N)=O)C(=O)N[C@@H](CCCCN)C(=O)N[C@@H](CCCCN)C(=O)N[C@@H](CC(C)C)C(=O)N[C@@H](CCCNC(=N)N)C(=O)N[C@@H](CO)C(=O)N[C@@H](CCOC)C(=O)N[C@H](C(=O)N[C@@H](CC(=O)O)C(=O)N[C@@H](CCCCN)C(=O)N[C@@H](Cc1ccc(O)cc1)C(=O)N[C@@H](CCCNC(=N)N)C(=O)N[C@@H](CC(C)C)C(N)=O)[C@@H](C)O` [Compound 22] (Palmitoyl-[hSer](Me)GYQKKLRS[hSer](Me)TDKYRL-NH2): the Emax amounted to 77.7%.
The result for `CCCCCCCCCCCCCCCC(=O)N[C@@H](COC)C(=O)NCC(=O)N[C@@H](Cc1ccc(O)cc1)C(=O)N[C@@H](CCC(N)=O)C(=O)N[C@@H](CCCCN)C(=O)N[C@@H](CCCCN)C(=O)N[C@@H](CC(C)C)C(=O)N[C@@H](CCCNC(=N)N)C(=O)N[C@@H](CO)C(=O)N[C@@H](COC)C(=O)N[C@H](C(=O)N[C@@H](CC(=O)O)C(=O)N[C@@H](CCCCN)C(=O)N[C@@H](Cc1ccc(O)cc1)C(=O)N[C@@H](CCCNC(=N)N)C(=O)N[C@@H](CC(C)C)C(N)=O)[C@@H](C)O` [Compound 23] (Palmitoyl-S(Me)GYQKKLRSS(Me)TDKYRL-NH2) reads 87.2%; that for `C#CC[C@H](NC(=O)CCCCCCCCCCCCCCC)C(=O)NCC(=O)N[C@@H](Cc1ccc(O)cc1)C(=O)N[C@@H](CCC(N)=O)C(=O)N[C@@H](CCCCN)C(=O)N[C@@H](CCCCN)C(=O)N[C@@H](CC(C)C)C(=O)N[C@@H](CCCNC(=N)N)C(=O)N[C@@H](CO)C(=O)N[C@@H](CCSC)C(=O)N[C@H](C(=O)N[C@@H](CC(=O)O)C(=O)N[C@@H](CCCCN)C(=O)N[C@@H](Cc1ccc(O)cc1)C(=O)N[C@@H](CCCNC(=N)N)C(=O)N[C@@H](CC(C)C)C(N)=O)[C@@H](C)O` [Compound 24] (Palmitoyl-[Pra]GYQKKLRSMTDKYRL-NH2; C-terminus assumed), 76.6%.
